Measurements taken from patent publication US8722910B2, “Diyne compositions” (Evolva AG, priority 2009, dated 2014).
≈ marks a conversion by molar mass, not a printed value. Read-outs that look alike come from different tables or passages of the source.

Legend:
[1] = test system: Enterobacter faecalis 29212; test: In vitro Antibacterial Activity; assay type: cell-based
Escherichia coli 700 = test: In vitro Antibacterial Activity; assay type: cell-based
[2] = test system: Staphylococcus aureus 29213; test: In vitro Antibacterial Activity; assay type: cell-based
Coccidioides spp. = test: microbe, parasite or virus in culture; assay type: cell-based; settings: Coccidioides, 48 h
A. fumigatus = test: Susceptibility of clinical Aspergillus isolates (MIC); assay type: cell-based; settings: Aspergillus fumigatus; A. fumigatus (n = 20); CLSI M38-A2; 50% growth inhibition; 24 h; read-out: MIC50
Procedure: (§1) The efficacy of compound IV″ was investigated on 563 clinical isolates of 33 human fungal pathogens. […] For species with n≧10, the MIC90 (MIC, minimal inhibitory concentration) is given as ng/ml. For species with n≦10, the MIC range is given as ng/ml. 24 h and 48 h reads are indicated (Table 1).
(§2) Susceptibilities were determined according to the CLSI reference method M38-A2.

A. versicolor = test: as above; assay type: cell-based; settings: Aspergillus versicolor; A. versicolor (n = 3); CLSI M38-A2; 50% growth inhibition; 24 h; read-out: MIC50
Procedure: as §1, §2

A. terreus = test: as above; assay type: cell-based; settings: Aspergillus terreus; A. terreus (n = 5); CLSI M38-A2; 50% growth inhibition; 24 h; read-out: MIC50
Procedure: as §1, §2

A. flavus = test: as above; assay type: cell-based; settings: Aspergillus flavus; A. flavus (n = 2); CLSI M38-A2; 50% growth inhibition; 24 h; read-out: MIC50
Procedure: as §1, §2

A. niger = test: as above; assay type: cell-based; settings: A. niger (n = 6), CLSI M38-A2, 50% growth inhibition, 24 h, read-out: MIC50
Procedure: as §1, §2

A. nidulans = test: as above; assay type: cell-based; settings: 24 h
Procedure: as §1, §2

H. capsulatum = test: microbe, parasite or virus in culture; assay type: cell-based; settings: Histoplasma capsulatum, 120 h
C. parapsilosis [3] = test: Susceptibility of clinical isolates (MIC, broth dilution); assay type: cell-based; settings: Lodderomyces parapsilosis
Procedure: as §1
(§3) The in vitro efficacy of antifungal compounds is determined in susceptibility assays, which are indicative for the spectrum and potency of a compound. Susceptibilities are reported as minimal inhibitory concentrations (MIC, as ng/ml or μg/ml) required to inhibit growth to a defined degree compared to the drug free control. The MIC90 defines the MIC required to inhibit growth for ≧90% of the strains of a population tested.
(§4) The MIC90 was calculated for the indicated species.

C. albicans [4] = test: as above; assay type: cell-based; settings: Candida albicans; C. albicans (n = 20); M27-A3, 24 hrs; read at 50% inhibition (potassium salt, Voriconazole), 100% (Amphotericin), MEC (Caspofungin); read-out: MIC90
Procedure: as §1, §3, §4

C. tropicalis = test: as above; assay type: cell-based; settings: Candida tropicalis; C. tropicalis (n = 35); M27-A3, 24 hrs; read at 50% inhibition (potassium salt, Voriconazole), 100% (Amphotericin), MEC (Caspofungin); read-out: MIC90
Procedure: as §1, §3, §4

C. krusei [5] = test: as above; assay type: cell-based; settings: Pichia kudriavzevii; C. krusei (n = 27); M27-A3, 24 hrs; read at 50% inhibition (potassium salt, Voriconazole), 100% (Amphotericin), MEC (Caspofungin); read-out: MIC90
Procedure: as §1, §3, §4

C. lusitaniae [6] = test: as above; assay type: cell-based; settings: Clavispora lusitaniae; C. lusitaniae (n = 24); M27-A3, 24 hrs; read at 50% inhibition (potassium salt, Voriconazole), 100% (Amphotericin), MEC (Caspofungin); read-out: MIC90
Procedure: as §1, §3, §4

C. dubliniensis = test: as above; assay type: cell-based; settings: Candida dubliniensis; C. dubliniensis (n = 25); M27-A3, 24 hrs; read at 50% inhibition (potassium salt, Voriconazole), 100% (Amphotericin), MEC (Caspofungin); read-out: MIC90
Procedure: as §1, §3, §4

C. glabrata [7] = test: as above; assay type: cell-based; settings: Nakaseomyces glabratus
Procedure: as §1, §3, §4

C. albicans [8] = test: Fatty acid competition (antagonism) in 96-well plates; settings: 48 h
B. dermatitidis = test: Susceptibility of clinical dimorphic fungi (MIC); assay type: cell-based; settings: Blastomyces dermatitidis; B. dermatitidis (n = 30); CLSI M38-A2; 50% growth reduction; MIC read at 96 h
[9] = test system: C. glabrata, Fluconazole, Voriconazole, Itraconazole and/or Caspofungin resistant isolates; test: Susceptibility of resistant clinical isolates (MIC, broth dilution); assay type: cell-based; settings: Nakaseomyces glabratus; C. glabrata resistant (n = 21): isolates resistant to Fluconazole, Itraconazole, Voriconazole and Caspofungin; read-out: MIC90
Procedure: as §1, §4

C. parapsilosis [10] = test: In vitro antifungal activity vs. yeasts (MIC/MFC); assay type: cell-based; settings: Lodderomyces parapsilosis; C. parapsilosis (n = 2); 90% inhibition endpoint
Candida albicans = test: In vitro antifungal activity vs. yeasts (MIC/MFC); assay type: cell-based; settings: Candida albicans (n = 8); 90% inhibition endpoint
C. albicans [11] = test: Rat model of systemic candidiasis, single oral administration, kidney burden; assay type: in vivo; settings: rats
all Candida strains = test: MIC range over all Candida strains tested; assay type: cell-based; settings: Table 13 strains
C. lusitaniae [12] = test: In vitro antifungal activity vs. yeasts (MIC/MFC); assay type: cell-based; settings: Clavispora lusitaniae
ergosterol biosynthesis = test: 13C-acetate incorporation into ergosterol; assay type: cell-based, Candida albicans; settings: drug at about its MIC, added after the first 15 minutes
C. lipolytica = test: In vitro antifungal activity vs. yeasts (MIC/MFC); assay type: cell-based; settings: Yarrowia lipolytica
C. albicans [13] = test: Rat model of systemic candidiasis, single intravenous infusion, liver burden; assay type: in vivo; settings: rats
C. guilliermondii = test: In vitro antifungal activity vs. yeasts (MIC/MFC); assay type: cell-based; settings: Meyerozyma guilliermondii; C. guilliermondii (n = 1); 90% inhibition endpoint
Malassezia furfur = test: In vitro antifungal activity vs. yeasts (MIC/MFC); assay type: cell-based; settings: Malassezia furfur
C. glabrata [14] = test: In vitro antifungal activity vs. yeasts (MIC/MFC); assay type: cell-based; settings: Nakaseomyces glabratus; C. glabrata (n = 1); 90% inhibition endpoint
C. albicans [15] = test: Effect on the morphology of growing Candida albicans cultures; assay type: cell-based; settings: inhibiting concentrations
C. krusei [16] = test: In vitro antifungal activity vs. yeasts (MIC/MFC); assay type: cell-based; settings: Pichia kudriavzevii; C. krusei (n = 1); 90% inhibition endpoint
[17] = Stability of diyne salts on storage (HPLC content); assay type: physicochemical
Procedure: Potassium (Z)-14-(furan-2-yl)tetradeca-9-en-11,13-diynoate was kept as a crystalline solid for 6 month at 2-8° C. The content of potassium (Z)-14-(furan-2-yl)tetradeca-9-en-11,13-diynoate was determined by HPLC against a reference sample kept at −20° C. After 6 months of storage characteristics such as colour, water content, XRPD profile, of the solid had not changed and it was still a beige solid. […] Also no change in the impurity profile was observed after 6 months storage.
Potassium (Z)-14-(furan-2-yl)tetradeca-9-en-11,13-diynoate was also kept as a crystalline solid for 6 month at 25° C., 60% RH. Analysis was performed as described above. After 6 months of storage characteristics of the solid has not changed and it was still a beige solid. […] Also no change in the impurity profile was observed after 6 months storage.
Potassium (Z)-14-(furan-2-yl)tetradeca-9-en-11,13-diynoate was also kept as a crystalline solid for 6 month at 40° C., 75% RH. Analysis was performed as described above. After 6 months of storage the appearance of the solid had changed to a brown solid. Furthermore, a decrease in the content of potassium (Z)-14-(furan-2-yl)tetradeca-9-en-11,13-diynoate to 96% was observed as analysed by HPLC.
Sodium (Z)-14-(furan-2-yl)tetradeca-9-en-11,13-diynoate was kept as an amorphous solid at room temperature. […] Furthermore the salt was dissolved in an aqueous solution and already after few days the content of sodium (Z)-14-(furan-2-yl)tetradeca-9-en-11,13-diynoate was reduced by 35%, thus proving strong instability of the amorphous salt form.

CC1(C)S[C@@H]2[C@H](NC(=O)[C@H](N)c3ccccc3)C(=O)N2[C@H]1C(=O)O [Ampicillin, reference compound]
MIC90 [1]: 0.78 µg/mL (≈ 2.23 µM)
MIC90 (Escherichia coli 700): 3.12 µg/mL (≈ 8.94 µM)

Gentamicin [reference compound]
MIC90 [2]: Gentamicin—0.78 μg/ml

C[C@@H](c1ncncc1F)[C@](O)(Cn1cncn1)c1ccc(F)cc1F [Voriconazole]
MIC90 (Coccidioides spp.): 0.125 µg/mL (≈ 0.358 µM)
MIC50 (A. fumigatus): 0.25 µg/mL (≈ 0.716 µM)
MIC50 (A. versicolor): 0.25 µg/mL (≈ 0.716 µM)
MIC50 (A. terreus): 0.25 µg/mL (≈ 0.716 µM)
MIC50 (A. flavus): 0.5 µg/mL (≈ 1.43 µM)
MIC50 (A. niger): 1 µg/mL (≈ 2.86 µM)
MIC50 (A. nidulans): 0.125 µg/mL (≈ 0.358 µM)
MIC90 (H. capsulatum): 0.125 µg/mL (≈ 0.358 µM)
MIC90 (C. parapsilosis [3]; 24 h): 0.125 µg/mL (≈ 0.358 µM)
MIC90 (C. albicans [4]): 0.03 µg/mL
MIC90 (C. tropicalis): 0.03 µg/mL
MIC90 (C. krusei [5]): 0.5 µg/mL
MIC90 (C. lusitaniae [6]): 0.03 µg/mL
MIC90 (C. dubliniensis): 0.016 µg/mL
MIC90 (C. glabrata [7]; 24 h): 0.125 µg/mL (≈ 0.358 µM)
effect of oleic acid / stearic acid on susceptibility (C. albicans [8]): oleic acid did not decrease the susceptibility
MIC90 (B. dermatitidis): 0.25 µg/mL (≈ 0.716 µM)

CC[C@H](C)C[C@H](C)CCCCCCCCC(=O)N[C@H]1C[C@@H](O)[C@@H](NCCN)NC(=O)[C@@H]2[C@@H](O)CCN2C(=O)[C@H]([C@H](O)CCN)NC(=O)[C@H]([C@H](O)[C@@H](O)c2ccc(O)cc2)NC(=O)[C@@H]2C[C@@H](O)CN2C(=O)[C@H]([C@@H](C)O)NC1=O [Caspofungin]
MIC90 [9]: 2 µg/mL (≈ 1.83 µM)
MIC90 (Coccidioides spp.): 0.5 µg/mL (≈ 0.457 µM)
MIC90 (H. capsulatum): 2 µg/mL (≈ 1.83 µM)
MIC90 (C. parapsilosis [3]; C. parapsilosis (n = 37), M27-A3, 24 hrs, read at 50% inhibition (potassium salt, Voriconazole), 100% (Amphotericin), MEC (Caspofungin), read-out: MIC90): 8 µg/mL
MIC90 (C. tropicalis): 1 µg/mL
MIC90 (C. krusei [5]): 2 µg/mL
MIC90 (C. lusitaniae [6]): 2 µg/mL
MIC90 (C. dubliniensis): 1 µg/mL
MIC90 (C. glabrata [7]; C. glabrata (n = 25), M27-A3, 24 hrs, read at 50% inhibition (potassium salt, Voriconazole), 100% (Amphotericin), MEC (Caspofungin), read-out: MIC90): 2 µg/mL
effect of oleic acid / stearic acid on susceptibility (C. albicans [8]): oleic acid did not decrease the susceptibility
MIC90 (B. dermatitidis): 4 µg/mL (≈ 3.66 µM)

OC(Cn1cncn1)(Cn1cncn1)c1ccc(F)cc1F [Fluconazole, reference compound]
MIC (C. parapsilosis [10]): 1 µg/mL (≈ 3.27 µM)
MIC (Candida albicans): 1 µg/mL (≈ 3.27 µM)
reduction of tissue burden (cfu/g tissue), comparator (C. albicans [11]; vs vehicle at 24 hours, dose not given): 90%
MIC range for all Candida strains (all Candida strains): 0.125 to 16 µg/mL
MIC (C. lusitaniae [12]): 0.125 µg/mL (≈ 0.408 µM)
net biosynthesis of ergosterol (13C-acetate incorporation) (ergosterol biosynthesis): inhibited the incorporation of acetate into ergosterol
MIC (C. lipolytica): 0.125 µg/mL (≈ 0.408 µM)
reduction of tissue burden (cfu/g tissue), comparator (C. albicans [13]; liver, vs vehicle at 24 hours, dose not given): 93%
MIC (C. guilliermondii): 4 µg/mL (≈ 13.1 µM)
MIC (Malassezia furfur): 0.125 µg/mL (≈ 0.408 µM)
MIC (C. glabrata [14]): 2 µg/mL (≈ 6.53 µM)
effect on hyphal tube formation (C. albicans [15]; microscopy): did not affect hyphal tube formation
effect on cell growth (C. albicans [15]; microscopy and MTT): permitted fungal growth (albeit at a reduced rate)
MIC (C. krusei [16]): 16 µg/mL (≈ 52.2 µM)

O=C([O-])CCCCCCC/C=C\C#CC#Cc1ccco1.[Na+] [Compound V″, sodium (Z)-14-(furan-2-yl)tetradeca-9-en-11,13-diynoate]
decrease of kidney fungal burden (CFU per gram tissue) (C. albicans [11]; single oral dose 17 mg/kg, 6 h): 57%
appearance after storage ([17]; amorphous solid at room temperature, short term storage): the colour darkened
reduction of content in aqueous solution ([17]; aqueous solution, after few days): 35%
decrease of liver fungal burden (CFU per gram tissue) (C. albicans [13]; single intravenous infusion 12 mg/kg, 24 h): 93%
